Entries after “also recorded” stand apart in the source; their conditions may differ.
Experiments:
[1] = test system: IR exon 11 inclusion in wild-type fibroblasts; assay: IR exon 11 inclusion via RT-PCR in wild-type fibroblasts; type: cell-based
Description: (§1) Cell lines and cell culture: Compounds were tested in two cell lines: (i) DM2 patient-derived fibroblasts (generous gift from University of Florida, Center for NeuroGenetics) and (ii) fibroblasts from a healthy donor (wild-type; WT GM07492; Coriell Institute). Cells were maintained at 37° ° C. with 5% CO2. DM2 fibroblasts were cultured in DMEM/high glucose (HyClone) supplemented with 20% FBS (Sigma) and 1% Antibiotic-Antimycotic solution (Corning). Wild-type fibroblasts were cultured in MEM (Corning) supplemented with 10% FBS, 1% Glutagro (Corning), and 1% Antibiotic-Antimycotic solution.
(§2) Evaluation of pre-mRNA splicing via RT-PCR: Pre-mRNA splicing was analyzed as previously described.^10 Briefly, cells were grown in 6-well plates and treated with the desired compound in growth medium at ˜40% confluency. After 48 h, the cells were lysed, and total RNA was harvested using a Zymo Quick RNA Miniprep Kit. Approximately 1 μg of total RNA was reverse transcribed using a qScript cDNA synthesis kit (20 μL of total reaction volume, Quanta BioSciences); 2 μL of the RT reaction was used for PCR using GoTaq DNA polymerase (Promega). […] Gels were quantified using ImageJ. Percent rescue was calculated by dividing the difference between treated and untreated DM2 samples by the difference between untreated DM2 and WT samples (Equation 2).

[2] = test system: CNBP intron 1 in wild-type fibroblasts; assay: CNBP intron 1 levels via RT-qPCR in wild-type fibroblasts; type: cell-based
Description: as §1
(§3) Evaluation of CNBP abundance via RT-qPCR: CNBP abundance was evaluated as previously described.^10 Briefly, cells were grown in 6-well plates and treated with the desired compound in growth medium at 40% confluency. […] Approximately 1 μg of total RNA was reverse transcribed using a qScript cDNA synthesis kit (20 μL total reaction volume, Quanta BioSciences); 2 μL of the reverse transcription (RT) reaction was used for each primer pair (Table S1) for quantitative PCR with SYBR Green Master Mix, performed on a QuantStudio 5, 384-well Block Real-Time PCR System (Applied Biosciences). Relative abundance was determined by normalizing to GAPDH (n=6 replicates per concentration; 2 independent experiments).

[3] = test system: IR exon 11 alternative splicing in DM2 patient-derived fibroblasts; assay: Rescue of IR exon 11 splicing via RT-PCR in DM2 fibroblasts; type: cell-based
Description: as §1
Evaluation of pre-mRNA splicing via RT-PCR: Pre-mRNA splicing was analyzed as previously described.^10 Briefly, cells were grown in 6-well plates and treated with the desired compound in growth medium at ˜40% confluency. After 48 h, the cells were lysed, and total RNA was harvested using a Zymo Quick RNA Miniprep Kit. Approximately 1 μg of total RNA was reverse transcribed using a qScript cDNA synthesis kit (20 μL of total reaction volume, Quanta BioSciences); 2 μL of the RT reaction was used for PCR using GoTaq DNA polymerase (Promega). RT-PCR products were observed after 35 cycles of 95° C. for 30 s, 58° C. for 30s, 72 °C for 1 min, and a final extension at 72° C. for 5 min. Products were separated on a 2% agarose gel (110 V for 1 h in 13TBE buffer), visualized by staining with ethidium bromide, and imaged using a Typhoon 9410 variable mode imager. Gels were quantified using ImageJ. Percent rescue was calculated by dividing the difference between treated and untreated DM2 samples by the difference between untreated DM2 and WT samples (Equation 2).

[4] = test system: CNBP mature mRNA in DM2 patient-derived fibroblasts; assay: CNBP mature mRNA levels via RT-qPCR in DM2 fibroblasts; type: cell-based
Description: as §1, §3

[5] = test system: MAP4K4 exon 22a splicing (NOVA-dependent) in DM2 fibroblasts; assay: MAP4K4 exon 22a splicing via RT-PCR in DM2 fibroblasts; type: cell-based
Description: as §1, §2

[6] = test system: CNBP intron 1 in DM2 patient-derived fibroblasts; assay: CNBP intron 1 abundance via RT-qPCR in DM2 fibroblasts; type: cell-based; set-up: dose or concentration left out as unconfirmed
Description: as §1, §3

[7] = test system: r(CCUG)12-MBNL1 complex; assay: TR-FRET assay, disruption of pre-formed r(CCUG)12-MBNL1 complex; type: biochemical; conditions: in vitro, read-out: IC50 for disrupting an r(CCUG)12-MBNL1 complex
From the text: Of the 44 hits, 38 contained a similar substituted N2-phenylquinazoline-2,4-diamine core, while the other hits contained benzimidazoles and indazoles (Figure S2). Importantly, these 44 compounds are drug-like as they have similar physicochemical properties to the rest of the library and to known-drugs in Drug Bank (FIG. 2A). On average, the 44 hit compounds have a molecular weight of 327±35 g/mol, a cLogP of 3.2±0.9. TPSA of 76±15 Å, and 2.5±0.9 hydrogen bond donors. The in vitro potencies (IC50s) of the 44 compounds were then measured in the TR-FRET assay, affording seven compounds (1-7) with IC50s <50 μM (highlighted in red in FIGS. 2B & 2C).
In vitro IC50 measurements: IC50 measurements for disruption of r(CCUG)12-MBNL1 complex was completed using a previously reported TR-FRET assay with minor modifications.^23, 24 Briefly, 5′-biotinylated r(CCUG)12 (SEQ ID NO: 15) was folded in 1× Folding Buffer (20 mM HEPES, pH 7.5, 110 mM KCl, and 10 mM NaCl) at 60° C. for 5 min then cooled to room temperature. The buffer was adjusted to 1× Assay Buffer (20 mM HEPES, pH 7.5, 110 mM KCl, 10 mM NaCl, 2 mM MgCl2, 2 mM CaCl2), 5 mM DTT. 0.1% BSA, and 0.5% Tween-20).
Next, MBNL1-His6 was added, and the samples were incubated at room temperature for 15 min. […] The samples were incubated for 30 min at room temperature and added to a white 384-well plate, where TR-FRET was measured on a Molecular Devices SpectraMax M5 plate reader using an excitation wavelength of 345-nm and a 420-nm cutoff. The ratios of fluorescence intensity at 545 and 665 nm were calculated, and ratios in the absence of a compound and in the absence of RNA were used to calculate percent disruption. […]
[formula] • where y is ratio of fluorescence intensities at 545 nm and 665 nm (F545/F665), x is the concentration of a compound, B is F545/F665 value at max FRET effect (solution has RNA and protein but no compound added); A is F545/F665 value at min FRET effect (solution has antibodies but no RNA, protein, or compound); and the IC50 is the concentration of a compound where half of the protein is displaced by a compound.

Cc1ccc2nc(Nc3ccc4nc(C)sc4c3)nc(NCCCO)c2c1 [Compound 63, 3-((6-methyl-2-((2-methylbenzo[d]thiazol-6-yl)amino)quinazolin-4-yl)amino)propan-1-ol]
effect on IR exon 11 inclusion [1]: did not affect; also recorded: no effect | effect on CNBP intron 1 levels [2]: no effect | rescue of IR exon 11 splicing ([3]; at 1 μM): ~30% | rescue of IR splicing ([3]; at 1 μM dose, p=0.026): 33±5 | improvement of IR splicing ([3]; at 5 μM): significantly improved IR splicing | levels of CNBP mature mRNA [4]: did not affect | effect on MAP4K4 exon 22a splicing [5]: did not affect; also recorded: does not affect | abundance of CNBP intron 1 [6]: significantly reduced | IC50 [7]: 2200 ± 500 nM

Source: patent publication US20240262817A1, “QUINAZOLINE DERIVATIVES TARGETING R(CCUG) REPEATS IN MYOTONIC DYSTROPHY TYPE 2” (University of Florida Research Foundation, Incorporated, priority 2021, published 2024)
